Experimental data from ChEMBL document CHEMBL1201862, “PubChem BioAssay data set” (2004).
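Exposure lasted 48 hours, with cells grown in 96-well plates and compounds tested at five concentrations. At the GI50, growth is halved.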 Activity calls are given as the source filed them. Rule as the data show it: active = GI50 up to about 1.1 µM and inactive = higher.

How the values were obtained:
Experiment in all cases: NCI-60 cell line screen, 48 h
[1] = tested on: EKVX
[2] = tested on: K562
[3] = tested on: OVCAR-4
[4] = tested on: UACC-257
[5] = tested on: M14
[6] = tested on: SNB-75
[7] = tested on: SW-620
[8] = tested on: OVCAR-5
[9] = tested on: NCI-H460
[10] = tested on: A549
[11] = tested on: A498
[12] = tested on: MOLT-4
[13] = tested on: SK-MEL-5
[14] = tested on: HCC 2998
[15] = tested on: HCT-116
[16] = tested on: CAKI-1
[17] = tested on: SR
[18] = tested on: DU-145
[19] = tested on: RXF 393
[20] = tested on: LOX IMVI

For `Cc1c2c(n(CCc3ccccc3)c1C)N(C)N=C(C#N)S2(=O)=O`, the GI50 [1] was > 100 µM (inactive), the GI50 [2] was > 10 µM (inactive) and the GI50 [3] was > 100 µM (inactive). For the same compound, the GI50 [4] was > 100 µM (inactive), the GI50 [5] was > 100 µM (inactive) and the GI50 [6] was > 100 µM (inactive). The GI50 [7] was > 100 µM (inactive), the GI50 [8] was > 100 µM (inactive) and the GI50 [9] was > 100 µM (inactive). The GI50 [10] was > 100 µM (inactive), the GI50 [11] was > 10 µM (inactive) and the GI50 [12] was > 100 µM (inactive). For the same compound, the GI50 [13] was > 100 µM (inactive), the GI50 [14] was > 100 µM (inactive) and the GI50 [15] was > 100 µM (inactive). The GI50 [16] was > 100 µM (inactive), the GI50 [17] was > 100 µM (inactive) and the GI50 [18] was > 100 µM (inactive). The GI50 [19] was > 100 µM (inactive).
`CCN(CC)C(=S)N/N=C(\C)c1cccc(C)n1` was tested, and the GI50 [1] was < 0.01 µM (active), the GI50 [2] was < 0.01 µM (active) and the GI50 [4] was < 0.01 µM (active). For the same compound, the GI50 [5] was < 0.041 µM (active), the GI50 [6] was 4.11 µM (inactive) and the GI50 [8] was 2.08 µM (inactive). For the same compound, the GI50 [10] was 0.259 µM (active), the GI50 [11] was 0.183 µM (active) and the GI50 [12] was < 0.01 µM (active). For the same compound, the GI50 [13] was 0.0593 µM (active), the GI50 [20] was < 0.01 µM (active) and the GI50 [14] was 0.363 µM (active). For the same compound, the GI50 [15] was < 0.01 µM (active), the GI50 [16] was 0.31 µM (active) and the GI50 [17] was < 0.0182 µM (active). The GI50 [18] was 0.484 µM (active) and the GI50 [19] was 0.568 µM (active).
With `NC(=O)CC(/N=C1\C(=O)OC(C(O)CO)\C1=N/C(CC(N)=O)C(=O)O)C(=O)O` (configuration not stated) the GI50 [1] was > 100 µM (inactive), the GI50 [2] was > 100 µM (inactive) and the GI50 [3] was > 100 µM (inactive). For the same compound, the GI50 [4] was > 100 µM (inactive), the GI50 [5] was > 100 µM (inactive) and the GI50 [6] was > 100 µM (inactive). For the same compound, the GI50 [7] was > 100 µM (inactive), the GI50 [8] was > 10 µM (inactive) and the GI50 [9] was > 100 µM (inactive). The GI50 [10] was > 100 µM (inactive), the GI50 [11] was > 100 µM (inactive) and the GI50 [12] was > 100 µM (inactive). For the same compound, the GI50 [13] was > 100 µM (inactive), the GI50 [14] was > 100 µM (inactive) and the GI50 [15] was > 100 µM (inactive). For the same compound, the GI50 [16] was > 100 µM (inactive), the GI50 [17] was > 100 µM (inactive) and the GI50 [18] was > 100 µM (inactive). For the same compound, the GI50 [19] was > 100 µM (inactive).
`CC(C)CC(NC(=O)C(O)C(N)Cc1ccccc1)C(=O)O` (configuration not stated) was tested, and the GI50 [1] was > 100 µM (inactive), the GI50 [2] was > 100 µM (inactive) and the GI50 [3] was > 100 µM (inactive). For the same compound, the GI50 [4] was > 100 µM (inactive), the GI50 [5] was > 100 µM (inactive) and the GI50 [6] was > 100 µM (inactive). For the same compound, the GI50 [7] was > 100 µM (inactive), the GI50 [8] was > 100 µM (inactive) and the GI50 [9] was > 100 µM (inactive). The GI50 [10] was > 100 µM (inactive), the GI50 [12] was > 100 µM (inactive) and the GI50 [13] was > 100 µM (inactive). For the same compound, the GI50 [20] was > 100 µM (inactive), the GI50 [14] was > 100 µM (inactive) and the GI50 [15] was > 100 µM (inactive). For the same compound, the GI50 [16] was > 100 µM (inactive), the GI50 [17] was > 100 µM (inactive) and the GI50 [18] was > 100 µM (inactive). The GI50 [19] was > 100 µM (inactive).
For `Cc1oc(N)c(S(=O)(=O)c2cc3ccccc3[n+]([O-])c2N)c1C`, the GI50 [1] was > 100 µM (inactive), the GI50 [3] was > 100 µM (inactive) and the GI50 [4] was > 100 µM (inactive). For the same compound, the GI50 [5] was > 100 µM (inactive), the GI50 [6] was > 100 µM (inactive) and the GI50 [7] was > 100 µM (inactive). For the same compound, the GI50 [8] was > 100 µM (inactive), the GI50 [9] was > 100 µM (inactive) and the GI50 [10] was > 100 µM (inactive). For the same compound, the GI50 [11] was > 100 µM (inactive), the GI50 [12] was > 100 µM (inactive) and the GI50 [13] was > 100 µM (inactive). For the same compound, the GI50 [20] was > 100 µM (inactive), the GI50 [14] was > 100 µM (inactive) and the GI50 [16] was > 100 µM (inactive). For the same compound, the GI50 [17] was < 0.01 µM (active) and the GI50 [18] was > 100 µM (inactive).
In the case of `CCCCCCCCCCCCCCCCOCC(O)CO` (configuration not stated), the GI50 [1] was 18.2 µM (inactive), the GI50 [3] was 21 µM (inactive) and the GI50 [4] was 19.1 µM (inactive). For the same compound, the GI50 [5] was 22.8 µM (inactive), the GI50 [7] was 20.3 µM (inactive) and the GI50 [8] was 19.8 µM (inactive). The GI50 [9] was 19.9 µM (inactive), the GI50 [10] was 20.1 µM (inactive) and the GI50 [11] was 19.5 µM (inactive). For the same compound, the GI50 [12] was 13.3 µM (inactive), the GI50 [13] was 27.5 µM (inactive) and the GI50 [20] was 17.8 µM (inactive). For the same compound, the GI50 [14] was 17.3 µM (inactive), the GI50 [15] was 19.4 µM (inactive) and the GI50 [16] was 17.6 µM (inactive). For the same compound, the GI50 [17] was 10.3 µM (inactive), the GI50 [18] was 18.9 µM (inactive) and the GI50 [19] was 16.2 µM (inactive).
With `CC(=O)O[C@H]1[C@H](OC(=O)CC(C)(O)CC(=O)O)C[C@]2(C)C3=C(CCC2C1(C)C)[C@]1(C)CC[C@H]([C@H]2CC[C@H](C(C)(C)O)OC2O)[C@@]1(C)[C@@H](O)C3` (some centres not stated) the GI50 [1] was 17.4 µM (inactive), the GI50 [2] was 26.2 µM (inactive) and the GI50 [3] was 19.7 µM (inactive). For the same compound, the GI50 [4] was 19.4 µM (inactive), the GI50 [5] was 17.8 µM (inactive) and the GI50 [7] was 14.1 µM (inactive). For the same compound, the GI50 [8] was 17.3 µM (inactive), the GI50 [9] was 15.3 µM (inactive) and the GI50 [10] was 32.4 µM (inactive). The GI50 [11] was 12.9 µM (inactive), the GI50 [12] was 19 µM (inactive) and the GI50 [13] was 17.2 µM (inactive). The GI50 [20] was 18.5 µM (inactive), the GI50 [14] was 15.8 µM (inactive) and the GI50 [15] was 20.7 µM (inactive). For the same compound, the GI50 [16] was 16.9 µM (inactive), the GI50 [17] was 25.6 µM (inactive) and the GI50 [18] was 25.8 µM (inactive).
